Here are results for one compound from US20240000820A1, “A METHOD OF TREATING FOOT ROT” (Intervet Inc., priority 2020, published 2024).

SMILES strings stand for the structures.

Data set [1] relates to naturally occurring foot rot. In words: Efficacy of a single subcutaneous dose against naturally occurring foot rot in feedlot cattle (lameness and lesion scoring). Type of data set: in vivo, bovine animals. The following applies: for average lameness score: score guide 1-5 (Table 1); for average lesion score: score guide 1-5 (Table 2). The protocol: (§1) Thirty animals were enrolled to the Control Group and another thirty animals were enrolled in the Tildipirosin treated Group. The tildipirosin-treated group received a single dose, subcutaneously, while the control group was treated with a saline sterile solution. Both groups (treated and control) were housed in the same paddocks under typical Brazilian feedlot conditions.
Sixty animals were included in the trial in two different phases, according to the number of available animals that fulfill the inclusion criteria. The study was masked. […] The animals were randomized and evenly distributed across the treatment groups according to 15 blocks of 2 animals each in both inclusion dates (there were 2 inclusion dates, for a total of 60 animals).
The effectiveness of tildipirosin for the treatment of foot rot was evaluated by comparing the proportion of treatment success/improvement in the tildipirosin-treated group to the saline-treated control group on Day 7.
The lameness and the lesion scoring are described in Tables 1 and 2 below.
The animals' lesion and lameness score were assessed by the investigator on Days −1 and 0 of the study. To qualify for the effectiveness portion of the study, animals were diagnosed with foot rot by meeting the following criteria: • Lameness Score 3 in at least one foot for 2 consecutive days. • Lesion Score 2 in at least one foot for 2 consecutive days. • Clinically healthy (excepting lameness) • Body weight (348-499 kg body weight) • Age (20-24 months)
On Day 0, before treatment, bacteriological samples were collected from the infected hooves of the enrolled cattle. Lesions and lameness were also assessed on Days 2, 4 and 7. Treatment success, improvement, or failure was determined on Day 7 and was based on lameness and lesion score compared to Day 0. On Day 7, another bacteriological sample was collected from all animals.

Data set [2] relates to Fusobacterium necrophorum. Nature of the data set: Bacterial evaluation of hoof lesion samples (culture, biochemical tests and PCR) before treatment and on Day 7. Type of data set: in vivo. The conditions noted are these: Day 0 vs Day 7, in comparison to the control group.
Protocol: On Day 0, before treatment, bacteriological samples were collected from the infected hooves of the enrolled cattle. Lesions and lameness were also assessed on Days 2, 4 and 7. Treatment success, improvement, or failure was determined on Day 7 and was based on lameness and lesion score compared to Day 0. On Day 7, another bacteriological sample was collected from all animals. Bacteriological samples were collected on a sterile scraper and on a sterile swab from the border of healthy and necrotic tissue (around the hoof lesion) of the infected hooves of the enrolled cattle. The tip of the scraper, containing discharge from the lesions, was fractured off into 15 ml tubes containing 7 ml of a semi solid transport media formulated exclusively to anaerobic bacteria and the swab was discharged in a semi solid transport. The tubes were kept under refrigeration (4 to 8° C.) until they arrive into the laboratory. At the laboratory, the samples grew in culture media appropriated to F. necrophorum and Dichelobacter nodosus isolation. Isolates were identified using confirmatory biochemical tests and polymerase chain reaction (PCR) specific to F. necrophorum and D. nodosus species.
The nature of data set [3]: Health observations and adverse events in the foot rot study. Type of data set: in vivo, bovine animals. The protocol:
as §1

Setting [4] is: Day 0, before treatment, treated group.
The mark [5] stands for this setting: Day 7 after single subcutaneous dose of 4 mg/kg BW.

Consider `CC[C@H]1OC(=O)C[C@@H](O)[C@H](C)[C@@H](O[C@@H]2O[C@H](C)[C@@H](O)[C@H](N(C)C)[C@H]2O)[C@@H](CCN2CCCCC2)C[C@@H](C)C(=O)/C=C/C(C)=C/[C@@H]1CN1CCCCC1` [tildipirosin, (4R,5S,6S,7R,9R,11E,13E,15R,16R)-6-[(2R,3R,4S,5S,6R)-4-(dimethylamino)-3,5-dihydroxy-6-methyloxan-2-yl]oxy-16-ethyl-4-hydroxy-5,9,13-trimethyl-7-(2-piperidin-1-ylethyl)-15-(piperidin-1-ylmethyl)-1-oxacyclohexadeca-11,13-diene-2,10-dione], for which the average lameness score is listed as 3.1 in data set [1] (setting [4]) and 1.3 in data set [1] (setting [5]). For the same compound, the average lesion score in data set [1] (setting [4]) stood at 2.3; in data set [1] (setting [5]), 1.9. Also, the “treatment of naturally occurring foot rot” value in data set [1] (single subcutaneous dose of 4 mg of tildipirosin per kg BW) was “effectively treat”. In addition, the “bacterial evaluation (PCR identification of Fusobacterium necrophorum before vs after treatment)” value in data set [2] is “not conclusive”. Besides, the abnormal health observations entry in data set [3] (before or after treatment, single subcutaneous dose 4 mg/kg BW) is given as “no abnormal health observations”. The “adverse event (broken toenail on Day 7, one animal), relation to treatment” value in data set [3] (tildipirosin-treated group, according to the investigator) was “not related to the tildipirosin treatment”.
